Source: PubChem BioAssay (NCI)
Values joined by “and” are separate entries in the source; they are usually repeats but may differ in a detail not shown here. Equal values may be shown once.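 Tested at 5 concentrations; 48 h exposure; 96-well plates; endpoints linearly interpolated, else capped at highest concentration. GI50 is the concentration that inhibits growth by half. The concentration for full growth arrest is given as TGI.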

Legend:
Assay in all cases: NCI tumour cell line growth inhibition, 48 h; in the data active means GI50 below about 0.43 µM; inactive means the rest
786-0 renal = tested on: 786-0 renal
A498 renal = tested on: A498 renal
A549 NSCLC = tested on: A549 NSCLC
ACHN renal = tested on: ACHN renal
BT-549 breast = tested on: BT-549 breast
CAKI-1 renal = tested on: CAKI-1 renal
CCRF-CEM leukemia = tested on: CCRF-CEM leukemia
COLO 205 colon = tested on: COLO 205 colon
DMS 114 small cell lung = tested on: DMS 114 small cell lung
DMS 273 small cell lung = tested on: DMS 273 small cell lung
DU-145 prostate = tested on: DU-145 prostate
EKVX NSCLC = tested on: EKVX NSCLC
HCC-2998 colon = tested on: HCC-2998 colon
HCT-116 colon = tested on: HCT-116 colon
HCT-15 colon = tested on: HCT-15 colon
HL-60(TB) leukemia = tested on: HL-60(TB) leukemia
HOP-18 NSCLC = tested on: HOP-18 NSCLC
HOP-62 NSCLC = tested on: HOP-62 NSCLC
HOP-92 NSCLC = tested on: HOP-92 NSCLC
HS 578T breast = tested on: HS 578T breast
HT29 colon = tested on: HT29 colon
IGROV1 ovarian = tested on: IGROV1 ovarian
K-562 leukemia = tested on: K-562 leukemia
KM12 colon = tested on: KM12 colon
KM20L2 colon = tested on: KM20L2 colon
LOX IMVI melanoma = tested on: LOX IMVI melanoma
LXFL 529 NSCLC = tested on: LXFL 529 NSCLC
M14 melanoma = tested on: M14 melanoma
M19-MEL melanoma = tested on: M19-MEL melanoma
MALME-3M melanoma = tested on: MALME-3M melanoma
MCF7 breast = tested on: MCF7 breast
MDA-MB-231 breast = tested on: MDA-MB-231 breast
MDA-MB-435 = tested on: MDA-MB-435
MDA-N = tested on: MDA-N
NCI-H226 lung = tested on: NCI-H226 lung
NCI-H23 lung = tested on: NCI-H23 lung
NCI-H460 lung = tested on: NCI-H460 lung
NCI-H522 lung = tested on: NCI-H522 lung
NCI/ADR-RES ovarian = tested on: NCI/ADR-RES ovarian
OVCAR-3 ovarian = tested on: OVCAR-3 ovarian
OVCAR-4 ovarian = tested on: OVCAR-4 ovarian
OVCAR-5 ovarian = tested on: OVCAR-5 ovarian
OVCAR-8 ovarian = tested on: OVCAR-8 ovarian
PC-3 prostate = tested on: PC-3 prostate
RPMI-8226 leukemia = tested on: RPMI-8226 leukemia
RXF 393 renal = tested on: RXF 393 renal
RXF-631 renal = tested on: RXF-631 renal
SF-268 CNS = tested on: SF-268 CNS
SF-295 CNS = tested on: SF-295 CNS
SF-539 CNS = tested on: SF-539 CNS
SK-MEL-2 melanoma = tested on: SK-MEL-2 melanoma
SK-MEL-28 melanoma = tested on: SK-MEL-28 melanoma
SK-MEL-5 melanoma = tested on: SK-MEL-5 melanoma
SK-OV-3 ovarian = tested on: SK-OV-3 ovarian
SN12C renal = tested on: SN12C renal
SNB-19 CNS = tested on: SNB-19 CNS
SNB-75 CNS = tested on: SNB-75 CNS
SNB-78 CNS = tested on: SNB-78 CNS
SR leukemia = tested on: SR leukemia
SW-620 colon = tested on: SW-620 colon
T-47D breast = tested on: T-47D breast
TK-10 renal = tested on: TK-10 renal
U251 CNS = tested on: U251 CNS
UACC-257 melanoma = tested on: UACC-257 melanoma
UACC-62 melanoma = tested on: UACC-62 melanoma
UO-31 renal = tested on: UO-31 renal
XF 498 CNS = tested on: XF 498 CNS

CC(C)=CCC1=C(O)c2ccccc2C(=O)C1=O
> 88.3 µM: TGI (SK-MEL-2 melanoma)
inactive: GI50 (786-0 renal) > 100 µM and 21.6 µM and 26.1 µM | GI50 (A549 NSCLC) > 100 µM and 17.3 µM and 16.6 µM | GI50 (COLO 205 colon) 18.4 µM and 52.3 µM and 28.8 µM | GI50 (DMS 273 small cell lung) 37.8 µM and 9.15 µM | GI50 (DU-145 prostate) 23.5 µM | GI50 (EKVX NSCLC) 57.7 µM | GI50 (IGROV1 ovarian) > 100 µM and 46.2 µM and 14.8 µM | GI50 (KM20L2 colon) > 100 µM and 48.9 µM | GI50 (LXFL 529 NSCLC) > 100 µM and 16.2 µM | GI50 (M14 melanoma) > 100 µM and 45.8 µM and 16.3 µM | GI50 (M19-MEL melanoma) 48.5 µM and 20.8 µM | GI50 (MALME-3M melanoma) > 100 µM and 35.1 µM and 20.4 µM | GI50 (MCF7 breast) 21.8 µM | GI50 (MDA-MB-231 breast) 21 µM | GI50 (MDA-MB-435) 21.8 µM | GI50 (NCI-H23 lung) > 100 µM and 23.5 µM and 33.6 µM | GI50 (NCI-H522 lung) > 100 µM and 19.7 µM and 20.6 µM | GI50 (NCI/ADR-RES ovarian) 12.4 µM | GI50 (OVCAR-4 ovarian) 11.7 µM | GI50 (OVCAR-5 ovarian) 56.2 µM | GI50 (OVCAR-8 ovarian) > 100 µM and 26.7 µM and 20.8 µM | GI50 (RXF 393 renal) > 100 µM | GI50 (SF-268 CNS) > 100 µM and 11.8 µM | GI50 (SF-295 CNS) > 100 µM and 22.7 µM | GI50 (SK-MEL-2 melanoma) 68.7 µM | GI50 (SK-MEL-28 melanoma) > 100 µM and 23 µM | GI50 (SK-MEL-5 melanoma) 11.2 µM | GI50 (SK-OV-3 ovarian) > 100 µM and 47.7 µM | GI50 (SN12C renal) > 100 µM and 31.3 µM | GI50 (SNB-19 CNS) > 100 µM and 16.4 µM and 29.4 µM | GI50 (SW-620 colon) > 100 µM and 34.6 µM and 22.9 µM | GI50 (TK-10 renal) > 100 µM and 37.8 µM and 87.1 µM | GI50 (UACC-257 melanoma) > 100 µM and 28.6 µM | GI50 (UACC-62 melanoma) > 100 µM and 13.4 µM | GI50 (UO-31 renal) > 100 µM
> 100 µM: TGI (786-0 renal) | TGI (A498 renal) | TGI (A549 NSCLC) | TGI (ACHN renal) | TGI (BT-549 breast) | TGI (CAKI-1 renal) | TGI (DMS 114 small cell lung) | TGI (DMS 273 small cell lung) | TGI (DU-145 prostate) | TGI (EKVX NSCLC) | TGI (HCC-2998 colon) | TGI (HCT-116 colon) | TGI (HCT-15 colon) | TGI (HL-60(TB) leukemia) | TGI (HOP-18 NSCLC) | TGI (HOP-62 NSCLC) | TGI (HOP-92 NSCLC) | TGI (HS 578T breast) | TGI (HT29 colon) | TGI (IGROV1 ovarian) | TGI (K-562 leukemia) | TGI (KM12 colon) | TGI (KM20L2 colon) | TGI (LOX IMVI melanoma) | TGI (LXFL 529 NSCLC) | TGI (M14 melanoma) | TGI (M19-MEL melanoma) | TGI (MCF7 breast) | TGI (MDA-MB-231 breast) | TGI (MDA-MB-435) | TGI (MDA-N) | TGI (NCI-H226 lung) | TGI (NCI-H460 lung) | TGI (NCI-H522 lung) | TGI (NCI/ADR-RES ovarian) | TGI (OVCAR-3 ovarian) | TGI (OVCAR-4 ovarian) | TGI (OVCAR-5 ovarian) | TGI (OVCAR-8 ovarian) | TGI (PC-3 prostate) | TGI (RPMI-8226 leukemia) | TGI (RXF 393 renal) | TGI (RXF-631 renal) | TGI (SF-268 CNS) | TGI (SF-295 CNS) | TGI (SF-539 CNS) | TGI (SK-MEL-28 melanoma) | TGI (SK-OV-3 ovarian) | TGI (SN12C renal) | TGI (SNB-19 CNS) | TGI (SNB-75 CNS) | TGI (SNB-78 CNS) | TGI (SR leukemia) | TGI (SW-620 colon) | TGI (T-47D breast) | TGI (TK-10 renal) | TGI (U251 CNS) | TGI (UACC-257 melanoma) | TGI (UACC-62 melanoma) | TGI (UO-31 renal) | TGI (XF 498 CNS)
> 100 µM and 18.5 µM: TGI (CCRF-CEM leukemia)
> 100 µM and 96.2 µM: TGI (MALME-3M melanoma)
37.5 µM and > 100 µM: TGI (COLO 205 colon)
> 100 µM and 69.7 µM: TGI (NCI-H23 lung)
27 µM and 28 µM: TGI (SK-MEL-5 melanoma)
